Test system: Rat1 cells stimulated with EGF or bFGF
Test: Mitogenic effect of EGF and bFGF in Rat1 cells
Assay type: cell-based, rat
Settings: 25 μM; for Number of cells (% of control): day 5
Description: The potent […] inhibitor FTS was used to examine selectivity of the drugs towards ras-dependent growth-signaling pathways. In these experiments cells transformed by Erb-B2, that acts upstream of ras in the ras pathway, and cells transformed by V-raf or by T-antigen, that act independently of ras, were studied. The cells were placed at a density of 2×10^3 cells/well and received on the day of plating either solvent (controls) or 25 μM FTS. Cells were counted on day 5 of the experiment. […] At this concentration, however, no effects of FTS on the growth of V-tar transformed or of T-antigen-transformed cells were observed. The results in Table VI also indicate that the mitogenic effect of bFGF and EGF in Rat1 cells is inhibited by FTS.

## CC(C)=CCC/C(C)=C/CC/C(C)=C/CSc1ccccc1C(=O)O [FTS, (3,7,11-trimethyl-dodeca-2,6,10-trienyl)-2-thiobenzoic acid]
  effect on the mitogenic effect of bFGF and EGF in Rat1 cells: inhibited
Ras1 + 10 mg/ml ECP
  Number of cells (% of control): 40 ± 5 % of control
Ras1 + 50 mg/ml bPCP
  Number of cells (% of control): 42 ± 3 % of control

— USRE39682E1, “Farnesyl derivatives and pharmaceutical compositions containing them” (Ramot at Tel Aviv University Ltd., priority 1993, dated 2007)
